Patent US20260226064A1, “POLYCYCLIC COMPOUND FOR TREATING NEUROLOGICAL DISEASES AND TUMORS” (Shanghai Institute of Organic Chemistry, Chinese Academy of …, priority 2023, published 2026)

System: acetylated microtubule in HEK293T cells
Assay: Microtubule-Stabilizing Activity Assay (acetylated microtubule immunoblot, HEK293T, colchicine challenge)
Type: cell-based
Conditions: 1 h pre-incubation, then colchicine 1 μM 3 h, relative to CNDR-51657 at 500 nM = 1.00; for Microtubule-Stabilizing Activity 50 nM: compound 50 nM; for Microtubule-Stabilizing Activity 500 nM: compound 500 nM
Description: Compound solvent: 100% dimethyl sulfoxide (DMSO). Cell line: HEK293T (ATCC, CRL3216). Culture conditions: Cells were cultured in Dulbecco's Modified Eagle's Medium (DMEM) containing 10% fetal bovine serum and 1% penicillin/streptomycin. Cells were cultured at 37° C. in a Thermo-Fisher incubator with a humidified atmosphere of 5% carbon dioxide.
One day prior to the experiment, 100,000 cells were seeded at a density of 200,000 cells/ml in a 24-well plate.
On the day of the experiment, 20 μl of PBS phosphate buffer containing the test compound at experimental concentrations or an equivalent volume of DMSO was added to each well. After incubating at 37° C. for 1 hour, colchicine was added to each well at a final concentration of 1 μM, followed by an additional 3-hour incubation at 37° C. The plate was then placed on ice. The medium in each well was removed, and the cells were washed with ice-cold PBS. After aspirating the PBS, 0.1 mL of ice-cold RIPA lysis buffer (containing 0.5% sodium deoxycholate, 0.1% SDS, 1% NP-40, 5 mM EDTA, pH 8.0) was quickly added. Prior to use, a commercial protease inhibitor cocktail (1:500) and 1 μM deacetylase inhibitor Trichostatin A (Sangon Biotech Co., Ltd.) were added to the cell lysis buffer. The cell lysate were transferred to a 1.5 ml centrifuge tube, sonicated, and centrifuged at 13,000 rpm for 10 minutes. The supernatant was collected, and protein concentration was determined using the BCA assay.
Based on existing literature (Black, 1989; Kurt, 2011), acetylated microtubule was used as an indicator of microtubule polymerization to assess the microtubule-stabilizing efficacy of the compounds. HEK293T cell lysates were analyzed by SDS-PAGE (7.5% gel) and immunoblotted using acetylated microtubule antibody (1:20,000, Sigma-Aldrich, T7451) and α-microtubule antibody (1:2,000, Proteintech, 11224-1-AP). After incubation with fluorescent dye-conjugated IgG (1:40,000, Licor), the blots were visualized using an Odyssey-Dlx imaging system. Grayscale analysis was performed using ImageJ.
The compound activity was quantified with the microtubule-stabilizing activity of CNDR-51657 (C5) (Jane, 2016) at 500 nM as 1.00.

Row | Compound | Microtubule-Stabilizing Activity 50 nM | Microtubule-Stabilizing Activity 500 nM
1 | CC(C)[C@@H](C)Nc1c(-c2c(F)cc(OCC3[C@H]4CNC[C@@H]34)cc2F)c(Cl)nc2ncnn12 (stereo partly drawn) [Example 21, 6-(4-(((1R,5S,6r)-3-Azabicyclo[3.1.0]hexan-6-yl)methoxy)-2,6-difluorophenyl)-5-chloro-N—((R)-3-methylbutan-2-yl)-[1,2,4]triazolo[1,5-a]pyrimidin-7-amine] | 1.27 | 1.60
2 | CC(C)[C@@H](C)Nc1c(-c2c(F)cc(OCC3[C@H]4CN(C)C[C@@H]34)cc2F)c(Cl)nc2ncnn12 (stereo partly drawn) [Example 22, 5-Chloro-6-(2,6-difluoro-4-(((1R,5S,6r)-3-methyl-3-azabicyclo[3.1.0]hex-6-yl)methoxy)phenyl)-N—((R)-3-methylbutan-2-yl)-[1,2,4]triazolo[1,5-a]pyrimidin-7-amine] | 1.88 | 1.61
3 | Cc1nc2ncnn2c(N[C@H](C)C(C)C)c1-c1c(F)cc(OCC2[C@H]3CNC[C@@H]23)cc1F (stereo partly drawn) [Example 23, 6-(4-(((1R,5S,6r)-3-Azabicyclo[3.1.0]hex-6-yl)methoxy)-2,6-difluorophenyl)-5-methyl-N—((R)-3-methylbutan-2-yl)-[1,2,4]triazolo[1,5-a]pyrimidin-7-amine] | 0.80 | 0.99
4 | C[C@@H](Nc1c(-c2c(F)cc(OCC3[C@H]4CNC[C@@H]34)cc2F)c(Cl)nc2ncnn12)C1CCC1 (stereo partly drawn) [Example 26, 6-(4-(((1R,5S,6r)-3-Azabicyclo[3.1.0]hexan-6-yl)methoxy)-2,6-difluorophenyl)-5-chloro-N—((R)-1-cyclobutylethyl)-[1,2,4]triazolo[1,5-a]pyrimidin-7-amine] | 1.35 | 1.41
5 | C[C@@H](Nc1c(-c2c(F)cc(OCC3[C@H]4CN(C)C[C@@H]34)cc2F)c(Cl)nc2ncnn12)C1CCC1 (stereo partly drawn) [Example 27, 5-Chloro-N—((R)-1-cyclobutylethyl)-6-(2,6-difluoro-4-(((1R,5S,6r)-3-methyl-3-azabicyclo[3.1.0]hexan-6-yl)methoxy)phenyl)-[1,2,4]triazolo[1,5-a]pyrimidin-7-amine] | 1.64 | 1.37
6 | Cc1nc2ncnn2c(N[C@H](C)C2CCC2)c1-c1c(F)cc(OCC2[C@H]3CNC[C@@H]23)cc1F (stereo partly drawn) [Example 28, 6-(4-(((1R,5S,6r)-3-Azabicyclo[3.1.0]hexan-6-yl)methoxy)-2,6-difluorophenyl)-5-methyl-N—((R)-1-cyclobutylethyl)-[1,2,4]triazolo[1,5-a]pyrimidin-7-amine] | 1.65 | 1.43
7 | CC(C)[C@@H](C)Nc1c(-c2c(F)cc(OC[C@@H]3[C@@H]4CNC[C@@H]43)cc2F)c(Cl)nc2ncnn12 [Example 29, 6-(4-(((1R,5S,6s)-3-Azabicyclo[3.1.0]hexan-6-yl)methoxy)-2,6-difluorophenyl)-5-chloro-N—((R)-3-methylbutan-2-yl)-[1,2,4]triazolo[1,5-a]pyrimidin-7-amine] | 0.32 | 1.69
8 | CC(C)[C@@H](C)Nc1c(-c2c(F)cc(OC[C@H]3[C@H]4CN(C)C[C@@H]34)cc2F)c(Cl)nc2ncnn12 [Example 30, 5-Chloro-6-(2,6-difluoro-4-(((1R,5S,6s)-3-methyl-3-azabicyclo[3.1.0]hex-6-yl)methoxy)phenyl)-N—((R)-3-methylbutan-2-yl)-[1,2,4]triazolo[1,5-a]pyrimidin-7-amine] | 0.09 | 0.97
9 | C[C@H](Nc1c(-c2c(F)cc(OC[C@@H]3[C@@H]4CNC[C@@H]43)cc2F)c(Cl)nc2ncnn12)C(F)(F)F [Example 31, 6-(4-(((1R,5S,6s)-3-Azabicyclo[3.1.0]hex-6-yl)methoxy)-2,6-difluorophenyl)-5-chloro-N—((S)-1,1,1-trifluoropropan-2-yl)-[1,2,4]triazolo[1,5-a]pyrimidin-7-amine] | 0.35 | 1.25
10 | C[C@H](Nc1c(-c2c(F)cc(OC[C@H]3[C@H]4CN(C)C[C@@H]34)cc2F)c(Cl)nc2ncnn12)C(F)(F)F [Example 32, 5-Chloro-6-(2,6-difluoro-4-(((1R,5S,6s)-3-methyl-3-azabicyclo[3.1.0]hexan-6-yl)methoxy)phenyl)-N—((S)-1,1,1-trifluoropropan-2-yl)-[1,2,4]triazolo[1,5-a]pyrimidin-7-amine] | 0.07 | 2.51
11 | Fc1cc(OC[C@H]2[C@@H]3CNC[C@@H]32)cc(F)c1-c1c(Cl)nc2ncnn2c1NCC(F)(F)F [Example 33, 6-(4-(((1R,5S,6r)-3-azabicyclo[3.1.0]hexan-6-yl)methoxy)-2,6-difluorophenyl)-5-chloro-N-(2,2,2-trifluoroethyl)-[1,2,4]triazolo[1,5-a]pyrimidin-7-amine] | 1.46 | 1.64
12 | CN1C[C@@H]2[C@@H](COc3cc(F)c(-c4c(Cl)nc5ncnn5c4NCC(F)(F)F)c(F)c3)[C@@H]2C1 [Example 34, 5-Chloro-6-(2,6-difluoro-4-(((1R,5S,6r)-3-methyl-3-azabicyclo[3.1.0]hexan-6-yl)methoxy)phenyl)-N-(2,2,2-trifluoroethyl)-[1,2,4]triazolo[1,5-a]pyrimidin-7-amine] | 1.05 | 2.10
13 | CC(C)[C@@H](C)Nc1c(-c2c(F)cc(O[C@H]3C[C@H]4CNC[C@H]4C3)cc2F)c(Cl)nc2ncnn12 [Example 36, 5-Chloro-6-(2,6-difluoro-4-(((3aR,5r,6aS)-octahydrocyclopenta[c]pyrrol-5-yl)oxy)phenyl)-N—((R)-3-methylbutan-2-yl)-[1,2,4]triazolo[1,5-a]pyrimidin-7-amine] | 0.47 | 0.37
14 | CC(C)[C@@H](C)Nc1c(-c2c(F)cc(O[C@@H]3C[C@@H]4CN(C)C[C@@H]4C3)cc2F)c(Cl)nc2ncnn12 [Example 37, 5-Chloro-6-(2,6-difluoro-4-(((3aR,5r,6aS)-2-methyloctahydrocyclopenta[c]pyrrol-5-yl)oxy)phenyl)-N—((R)-3-methylbutan-2-yl)-[1,2,4]triazolo[1,5-a]pyrimidin-7-amine] | 0.16 | 0.17
15 | C[C@H](Nc1c(-c2c(F)cc(O[C@H]3C[C@H]4CNC[C@H]4C3)cc2F)c(Cl)nc2ncnn12)C(F)(F)F [Example 38, 5-Chloro-6-(2,6-difluoro-4-(((3aR,5r,6aS)-octahydrocyclopenta[c]pyrrol-5-yl)oxy)phenyl)-N—((S)-1,1,1-trifluoropropan-2-yl)-[1,2,4]triazolo[1,5-a]pyrimidin-7-amine] | 0.31 | 0.95
16 | C[C@H](Nc1c(-c2c(F)cc(O[C@@H]3C[C@@H]4CN(C)C[C@@H]4C3)cc2F)c(Cl)nc2ncnn12)C(F)(F)F [Example 39, 5-Chloro-6-(2,6-difluoro-4-(((3aR,5r,6aS)-2-methyloctahydrocyclopenta[c]pyrrol-5-yl)oxy)phenyl)-N—((S)-1,1,1-trifluoropropan-2-yl)-[1,2,4]triazolo[1,5-a]pyrimidin-7-amine] | 0.29 | 0.45
17 | CC(C)[C@@H](C)Nc1c(-c2c(F)cc(O[C@@H]3C[C@H]4CNC[C@H]4C3)cc2F)c(Cl)nc2ncnn12 [Example 40] | 0.17 | 0.69
18 | CC(C)[C@@H](C)Nc1c(-c2c(F)cc(O[C@H]3C[C@@H]4CN(C)C[C@@H]4C3)cc2F)c(Cl)nc2ncnn12 [Example 41, 5-Chloro-6-(2,6-difluoro-4-(((3aR,5s,6aS)-2-methyloctahydrocyclopenta[c]pyrrol-5-yl)oxy)phenyl)-N—((R)-3-methylbutan-2-yl)-[1,2,4]triazolo[1,5-a]pyrimidin-7-amine] | 0.11 | 1.93
